Experimental data reported in patent US9169254B2, “Spiroimidazolone derivative” (Chugai Seiyaku Kabushiki Kaisha, priority 2009, dated 2015).

Target: T1, human PTH1 receptor (Homo sapiens, UniProt Q03431)
T1 sequence (Q03431 27-593): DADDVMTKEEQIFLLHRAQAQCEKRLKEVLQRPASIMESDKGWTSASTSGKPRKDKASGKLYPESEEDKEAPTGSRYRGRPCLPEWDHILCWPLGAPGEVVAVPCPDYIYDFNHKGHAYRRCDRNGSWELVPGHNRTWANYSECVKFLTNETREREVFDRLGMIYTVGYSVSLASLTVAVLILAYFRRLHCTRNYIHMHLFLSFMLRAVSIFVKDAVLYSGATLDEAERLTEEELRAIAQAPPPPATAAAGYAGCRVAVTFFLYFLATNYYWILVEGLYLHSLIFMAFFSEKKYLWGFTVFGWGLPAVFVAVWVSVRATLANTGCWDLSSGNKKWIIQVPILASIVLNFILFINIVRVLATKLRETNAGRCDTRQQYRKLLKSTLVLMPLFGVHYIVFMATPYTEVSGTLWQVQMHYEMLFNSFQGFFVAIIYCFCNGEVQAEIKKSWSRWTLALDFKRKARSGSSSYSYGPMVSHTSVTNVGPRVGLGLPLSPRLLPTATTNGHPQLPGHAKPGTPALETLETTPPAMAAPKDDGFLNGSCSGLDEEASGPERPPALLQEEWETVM
Assay: In vitro cAMP signal activity in HKRK-B7 cells (LLC-PK1 cells overexpressing the human PTH1 receptor)
Type: cell-based
Settings: HKRK-B7 cells; compound at 1×10^−3 M; cAMP produced as percentage of that produced by hPTH(1-34) at 100 nM

| SMILES | cAMP production activity (%) |
| --- | --- |
| [2H]C([2H])([2H])C([2H])([2H])C([2H])([2H])C([2H])([2H])Oc1ccc(C2=NC3(CCN(S(=O)(=O)/C=C/c4c(C)cc(C(=O)N5CCC(C)(O)CC5)cc4C)CC3)C(=O)N2)cc1C(F)(F)F [Compound 1220, 2-(4-[1,1,2,2,3,3,4,4,4-^2H9]butoxy-3-trifluoromethyl-phenyl)-8-{(E)-2-[4-(4-hydroxy-4-methyl-piperidine-1-carbonyl)-2,6-dimethyl-phenyl]-ethenesulfonyl}-1,3,8-triaza-spiro[4.5]dec-1-en-4-one] | 80% |
| Cc1cc(C(=O)N2CCC(C)(O)CC2)cc(C)c1/C=C/S(=O)(=O)N1CCC2(CC1)N=C(c1ccc(C(F)(F)F)c(OCC(F)(F)C(F)F)c1)NC2=O [Compound 1223, 8-{(E)-2-[4-(4-hydroxy-4-methyl-piperidine-1-carbonyl)-2,6-dimethyl-phenyl]-ethenesulfonyl}-2-[3-(2,2,3,3-tetrafluoro-propoxy)-4-trifluoromethyl-phenyl]-1,3,8-triaza-spiro[4.5]dec-1-en-4-one] | 54% |
| Cc1cc(C(=O)N2CCC(C)(O)CC2)cc(C)c1/C=C/S(=O)(=O)N1CCC2(CC1)N=C(c1cc(OCC(F)(F)C(F)F)cc(C(F)(F)F)c1)NC2=O [Compound 1226, 8-{(E)-2-[4-(4-hydroxy-4-methyl-piperidine-1-carbonyl)-2,6-dimethyl-phenyl]-ethenesulfonyl}-2-[3-(2,2,3,3-tetrafluoro-propoxy)-5-trifluoromethyl-phenyl]-1,3,8-triaza-spiro[4.5]dec-1-en-4-one] | 51% |
| Cc1cc(C(=O)N2CCC(C)(O)CC2)cc(C)c1/C=C/S(=O)(=O)N1CCC2(CC1)N=C(c1ccc(Cl)c(OCCCC(F)(F)F)c1)NC2=O [Compound 1227, 2-[4-chloro-3-(4,4,4-trifluoro-butoxy)-phenyl]-8-{(E)-2-[4-(4-hydroxy-4-methyl-piperidine-1-carbonyl)-2,6-dimethyl-phenyl]-ethenesulfonyl}-1,3,8-triaza-spiro[4.5]dec-1-en-4-one] | 77% |
| Cc1cc(C(=O)N2CCC(C)(O)CC2)cc(C)c1/C=C/S(=O)(=O)N1CCC2(CC1)N=C(c1ccc(C(F)(F)F)c(OCC(F)(F)C(F)(F)F)c1)NC2=O [Compound 1228, 8-{(E)-2-[4-(4-hydroxy-4-methyl-piperidine-1-carbonyl)-2,6-dimethyl-phenyl]-ethenesulfonyl}-2-[3-(2,2,3,3,3-pentafluoro-propoxy)-4-trifluoromethyl-phenyl]-1,3,8-triaza-spiro[4.5]dec-1-en-4-one] | 68% |
| Cc1cc(C(=O)N2CCC(C)(O)CC2)cc(C)c1/C=C/S(=O)(=O)N1CCC2(CC1)N=C(c1ccc(Cl)c(OCC(F)(F)C(F)F)c1)NC2=O [Compound 1229, 2-[4-chloro-3-(2,2,3,3-tetrafluoro-propoxy)-phenyl]-8-{(E)-2-[4-(4-hydroxy-4-methyl-piperidine-1-carbonyl)-2,6-dimethyl-phenyl]-ethenesulfonyl}-1,3,8-triaza-spiro[4.5]dec-1-en-4-one] | 56% |
| [2H]C([2H])([2H])C([2H])([2H])C([2H])([2H])C([2H])([2H])Oc1cc(C2=NC3(CCN(S(=O)(=O)/C=C/c4c(C)cc(C(=O)N5CCC(C)(O)CC5)cc4C)CC3)C(=O)N2)ccc1Cl [Compound 1231, 2-(3-[1,1,2,2,3,3,4,4,4-^2H9]butoxy-4-chloro-phenyl)-8-{(E)-2-[4-(4-hydroxy-4-methyl-piperidine-1-carbonyl)-2,6-dimethyl-phenyl]-ethenesulfonyl}-1,3,8-triaza-spiro[4.5]dec-1-en-4-one] | 88% |
| Cc1cc(C(=O)N2CCC(C)(O)CC2)cc(C)c1/C=C/S(=O)(=O)N1CCC2(CC1)N=C(c1ccc(OC(F)(F)F)c(OCCCC(F)(F)F)c1)NC2=O [Compound 1232, 8-{(E)-2-[4-(4-hydroxy-4-methyl-piperidine-1-carbonyl)-2,6-dimethyl-phenyl]-ethenesulfonyl}-2-[3-(4,4,4-trifluoro-butoxy)-4-trifluoromethoxy-phenyl]-1,3,8-triaza-spiro[4.5]dec-1-en-4-one] | 106% |

The next lines start with the values.

| cAMP production activity (%) | SMILES |
| --- | --- |
| 67% | Cc1cc(C(=O)N2CCC(C)(O)CC2)cc(C)c1/C=C/S(=O)(=O)N1CCC2(CC1)N=C(c1ccc(C(F)F)c(F)c1)NC2=O [Compound 1219, 2-(4-difluoromethyl-3-fluoro-phenyl)-8-{(E)-2-[4-(4-hydroxy-4-methyl-piperidine-1-carbonyl)-2,6-dimethyl-phenyl]-ethenesulfonyl}-1,3,8-triaza-spiro[4.5]dec-1-en-4-one] |
| 75% | [2H]C([2H])([2H])C([2H])([2H])Oc1ccc(C2=NC3(CCN(S(=O)(=O)/C=C/c4c(C)cc(C(=O)N5CCC(C)(O)CC5)cc4C)CC3)C(=O)N2)cc1C(F)(F)F [Compound 1221, 2-(4-[1,1,2,2,2-^2H5]ethoxy-3-trifluoromethyl-phenyl)-8-{(E)-2-[4-(4-hydroxy-4-methyl-piperidine-1-carbonyl)-2,6-dimethyl-phenyl]-ethenesulfonyl}-1,3,8-triaza-spiro[4.5]dec-1-en-4-one] |
| 77% | [2H]C([2H])([2H])C([2H])(Oc1ccc(C2=NC3(CCN(S(=O)(=O)/C=C/c4c(C)cc(C(=O)N5CCC(C)(O)CC5)cc4C)CC3)C(=O)N2)cc1C(F)(F)F)C([2H])([2H])[2H] [Compound 1222, 8-{(E)-2-[4-(4-hydroxy-4-methyl-piperidine-1-carbonyl)-2,6-dimethyl-phenyl]-ethenesulfonyl}-2-(4-[1,2,2,2,2,2,2-^2H7]isopropoxy-3-trifluoromethyl-phenyl)-1,3,8-triaza-spiro[4.5]dec-1-en-4-one] |
| 88% | [2H]C([2H])([2H])C([2H])([2H])Oc1cc(C2=NC3(CCN(S(=O)(=O)/C=C/c4c(C)cc(C(=O)N5CCC(C)(O)CC5)cc4C)CC3)C(=O)N2)ccc1F [Compound 1224, 2-(3-[1,1,2,2,2-^2H5]ethoxy-4-fluoro-phenyl)-8-{(E)-2-[4-(4-hydroxy-4-methyl-piperidine-1-carbonyl)-2,6-dimethyl-phenyl]-ethenesulfonyl}-1,3,8-triaza-spiro[4.5]dec-1-en-4-one] |
| 90% | [2H]C([2H])([2H])C([2H])(Oc1cc(C2=NC3(CCN(S(=O)(=O)/C=C/c4c(C)cc(C(=O)N5CCC(C)(O)CC5)cc4C)CC3)C(=O)N2)ccc1F)C([2H])([2H])[2H] [Compound 1225, 2-(4-fluoro-3-[1,2,2,2,2,2,2-^2H7]isopropoxy-phenyl)-8-{(E)-2-[4-(4-hydroxy-4-methyl-piperidine-1-carbonyl)-2,6-dimethyl-phenyl]-ethenesulfonyl}-1,3,8-triaza-spiro[4.5]dec-1-en-4-one] |
| 64% | Cc1cc(C(=O)N2CCC(C)(O)CC2)cc(C)c1/C=C/S(=O)(=O)N1CCC2(CC1)N=C(c1ccc(Cl)c(OCC(F)(F)C(F)(F)F)c1)NC2=O [Compound 1230, 2-[4-chloro-3-(2,2,3,3,3-pentafluoro-propoxy)-phenyl]-8-{(E)-2-[4-(4-hydroxy-4-methyl-piperidine-1-carbonyl)-2,6-dimethyl-phenyl]-ethenesulfonyl}-1,3,8-triaza-spiro[4.5]dec-1-en-4-one] |
